Consider 1 substance from patent publication US10066025B2, “Compositions and methods for detecting, treating and preventing diseases and disorders” (YALE UNIVERSITY, priority 2012, dated 2018).

For test [1], the system named is renal ischemia/reperfusion (IR) injury. In words: Murine model of renal ischemia/reperfusion (IR) injury, plasma creatinine. Type of test: in vivo, mice. The following applies: renalase peptides 100 μg subcutaneous 10 to 30 min prior to 30 min renal ischemia, WT mice. Here is the method:
Adult male renalase deficient (KO) mice (Wu et al., 2011, Kidney Int 79: 853-860) on a C57BL/6 background were subjected to renal ischemia/reperfusion (IR) as described (Kim et al., 2009, Kidney Int 75: 809-823; Kim et al., 2010, Am J Physiol Renal Physiol 299(2):F347-58). Renalase KO or wild type (WT) mice (C57BL/6 from Harlan Labs, Indianapolis, Ind.) were subjected to sham-operation or to 20 min. (moderate) or 30 min. (severe) renal ischemia and 24 hr. reperfusion. To test the renal protective effects of recombinant human renalase, mice were pretreated with saline (vehicle) or with recombinant renalase (0.5, 1.5 or 4.5 mg/kg, s.c.) 10 min. prior to 30 min. renal ischemia. It was also tested whether renalase treatment after completion of renal ischemia also provides renal protection. Separate cohorts of mice were treated with saline or with renalase (1.5 mg/kg, s.c.) 30 min. or 60 min. after reperfusion of the ischemic kidney. To test whether blocking alpha receptors would mimic the renal protective effects of human recombinant renalase administration, phentolamine (an alpha receptor antagonist, 5 mg/kg, i.p.) was given in some mice 15 min. before renal ischemia.
Plasma creatinine was measured as described with an enzymatic creatinine reagent kit according to the manufacturer's instructions (Thermo Fisher Scientific, Waltham, Mass.) (Slot, 1965, J Clin Lab Invest 17: 381-387).
After animal care and use committee approval, adult male C57BL/6 (Harlan Labs, Indianapolis, Ind.) were subjected to sham-operation or to 30 minutes of renal ischemia followed by 24 hrs of reperfusion as previously described (Lee et al., 2004, American journal of physiology. Renal physiology 286:F298-306). To test the renal protective effects of renalase peptides (RP-220, RP-H220 and RP-224), mice were pretreated with saline (vehicle) or with renalase peptides (100 μg subcutaneous) 10 to 30 minutes prior to renal ischemia.
Blood was collected from mice anesthetized with isoflurane via cardiac puncture into a heparinized syringe and was subsequently centrifuged to separate plasma. Samples were submitted to the Yale O'Brien Kidney Center for measurement of BUN and creatinine. Plasma creatinine was measured either by an enzymatic creatinine reagent kit according to the manufacturer's instructions (Thermo Fisher Scientific, Waltham, Mass.) or by HPLC. These methods of creatinine measurement largely eliminate the interferences from mouse plasma chromagens, known to occur with the Jaffe method.

Test [2] has as its system PI3K/AKT and MAPK pathways. As to the kind of experiment: AKT and MAPK signaling and Bcl-2 expression by western blot. In kind it is cell-based, human. Here is the method: FIG. 12, comprising FIGS. 12A through 12E, is a set of images and graphs showing renalase upregulates Bcl-2, activates PI3K/AKT, ERK, p38, and inhibits JNK. Western blot analysis; P− indicates phosphorylated, activated proteins; signals normalized to GAPDH loading control, then changes in protein phosphorylation (increase=activation, decrease=inhibition) from time 0 are calculated. FIG. 12A: HK-2 and HUVEC cells incubated with renalase for 24 hrs; FIG. 12B: Western blot of time course of AKT and MAPK signaling by renalase, HK-2 cells incubated with renalase for indicated time; changes over baseline in 4c-d are significant (p<0.05); FIG. 12C: Activation of AKT(T308), AKT(5473) and ERK; FIG. 12D: Inhibition of JNK; FIG. 12E: Marked and sustained (60 min) upregulation of p38 by renalase in the presence of cisplatin, western blot for time course, REN=renalase, CP=cisplatin.
MAPK signaling by renalase and renalase peptides. Western blot analysis; ERK: Extracellular signal-Regulated Kinase 1 and 2; JNK: c-Jun N-terminal Kinases; AKT: protein kinase B; p-indicates phosphorylated, activated proteins; representative blot, n=3 (FIG. 20A). Renalase activates AKT (FIG. 20B). Western blot analysis; P− indicates phosphorylated, activated proteins Representative blot, n=3 (FIG. 20B, left panel). Signals normalized to GAPDH loading control; n=3, change over baseline statistically significant (P<0.05) from 1-60 min for ERK, p38 and AKT (T308), and at 30 min only for AKT (S473) (FIG. 20B, right panel). ERK or AKT inhibition abrogates protective effect of RP-H220 (FIG. 20C). Plasma creatinine levels from mice subjected to sham-surgery or to renal ischemia and reperfusion (IR); Renalase WT mice were subjected to sham-surgery or to 30 min renal IR. For mice subjected to renal IR, RP-H220 or vehicle (saline) was injected 10 min prior to renal ischemia. Some animals were pretreated with either the ERK inhibitor PD98059 or the PI3K/AKT inhibitor wortmanin. (N=6-8 per group). *: P<0.05 vs. vehicle-treated mice subjected to sham-surgery; #: P<0.05 vs. vehicle-treated WT mice subjected to renal IR (FIG. 20C).

A further test has as its system systemic blood pressure. As to the kind of experiment: Blood pressure and heart rate in anesthetized mice. In kind it is in vivo. The following applies: for effect on systemic blood pressure: IV and subcutaneous administration, mice. Here is the method:
As in 14A, except that RP-H220 is injected; no significant changes in blood pressure (FIG. 14B). Effect of a single intravenous injection of RP-220 (squares) and RP-H220 (diamonds) on heart rate in wild type mice (FIG. 14C).
FIG. 21 depicts the results of experiments examining the effect of RP-220 injection on blood pressure. A single subcutaneous injection of RP-220 (n=3) or buffer (n=2) in anesthetized wild type mice; BP pressure is recorded continuously; RP-220 is given at time 0; each data point represents the mean pressure; the standard error of the means are shown.
Systolic and diastolic pressure and heart rate were measured in anesthetized mice as previously described (Desir et al., 2012, J Am Heart Assoc. 1:e002634).

“Also recorded” adds a separate entry of the source.

“RP H220: histidine tagged RP-220, SEQ ID NO: 4, HHHHHHCIRFVSIDNKKRNIESSEIG (listed as Homo sapiens)”: the “protection against ischemic AKI (renal injury, plasma creatinine at 24 hr)” value is “protected against ischemia” in test [1] and “reduced renal injury; also recorded: more effective than RP-220; also recorded: ameliorated the renal ischemic injury” in test [1] (listed as RP-H220). Further, in test [2] (HK-2 cells), the “return of phosphorylation to baseline” value is recorded as ≤ 60 min. Further, the “time to detectable increased phosphorylation” value in test [2] (HK-2 cells) is given as ≤ 1 min. For the same substance, in test [2] (at 60 min), the JNK phosphorylation result is on record as “decreased”. The “effect on systemic blood pressure” value is “nor significant effect on systemic blood pressure; also recorded: no effect on BP” in the test with systemic blood pressure and “neither intravenous nor subcutaneous injection of RP-H220 had any effect on blood pressure” with systemic blood pressure (listed as RP-H220). Besides, the heart rate entry with systemic blood pressure (anesthetized WT mice) is “did not change”.
